Reference: patent US20020082420A1, “Bicyclic heterocycles, pharmaceutical compositions containing them, their use, and processes for preparing them” (priority 2000, published 2002)

What was measured:
human EGF-R = target: T1, human EGF-R (Homo sapiens, UniProt P00533); assay: Inhibition of EGF-dependent proliferation of F/L-HERc cells (Cell Titer 96 assay); format: cell-based; settings: F/L-HERc cells (murine IL-3-dependent line expressing human EGF-R), stimulated with EGF 20 ng/ml, 48 hours at 37° C.
T1 construct: expressed in transfected cells; host or cells: F/L-HERc cells (murine IL-3-dependent FDC-P1 line transduced with an LXSN retroviral vector carrying human EGF-R cDNA; packaging line GP+E86)
Excerpt: A cell line of murine origin dependent on interleukin-3-(IL-3) which was genetically modified to express functional human EGF-R was used here. The proliferation of these cells known as F/L-HERc can therefore be stimulated either by murine IL-3 or by EGF (cf T. von Ruiden et al., EMBO J. 7, 2749-2756 (1988) and J. H. Pierce et al., Science 239, 628-631 (1988)).
The starting material used for the F/L-HERc cells was the cell line FDC-P1, the production of which has been described by T. M. Dexter et al., J. Exp. Med. 152. 1036-1047 (1980). Alternatively, however, other growth-factor-dependent cells may also be used (cf., e.g., J.H. Pierce et al., Science 239, 628-631 (1988); H. Shibuya et al., Cell 70, 57-67 (1992); and W. S. Alexander et al., EMBO J. 10, 3683-3691 (1991)). For expressing the human EGF-R cDNA (cf A. Ullrich et al., Nature 309, 418-425 (1984)) recombinant retroviruses were used as described by T. von Ruiden et al., EMBO J. 7, 2749-2756 (1988), except that the retroviral vector LXSN (cf A. D. Miller et al., BioTechniques 7, 980-990 (1989)) was used for the expression of the EGF-R cDNA and the line GP+E86 (cf D. Markowitz et al., J. Virol. 62, 1120-1124 (1988)) was used as the packaging cell.
The test was performed as follows:
F/L-HERc cells were cultivated in RPMI/1640 medium (BioWhittaker), supplemented with 10% fetal calf serum (FCS, Boehringer Mannheim), 2 mM glutamine (BioWhittaker), standard antibiotics and 20 ng/ml of human EGF (Promega), at 37° C. and 5% CO2. In order to investigate the inhibitory activity of the compounds according to the invention, 1.5×10^4 cells per well were cultivated in triplicate in 96-well plates in the above medium (200 μl), the cell proliferation being stimulated with either EGF (20 ng/ml) or murine IL-3. The IL-3 used was obtained from culture supernatants of the cell line X63/0 mIL-3 (cf H. Karasuyama et al., Eur. J. Immunol. 18, 97-104 (1988)). The compounds according to the invention were dissolved in 100% dimethylsulfoxide (DMSO) and added to the cultures in various dilutions, the maximum DMSO concentration being 1%. The cultures were incubated for 48 hours at 37° C.
In order to determine the inhibitory activity of the compounds according to the invention the relative cell number was measured in O.D. units using the Cell Titer 96™ Aqueous Non-Radioactive Cell Proliferation Assay (Promega). The relative cell number was calculated as a percentage of the control (F/LHERc cells without inhibitor) and the concentration of active substance which inhibits the proliferation of the cells by 50% (IC50) was derived therefrom.

T1 sequence (P00533 25-1210): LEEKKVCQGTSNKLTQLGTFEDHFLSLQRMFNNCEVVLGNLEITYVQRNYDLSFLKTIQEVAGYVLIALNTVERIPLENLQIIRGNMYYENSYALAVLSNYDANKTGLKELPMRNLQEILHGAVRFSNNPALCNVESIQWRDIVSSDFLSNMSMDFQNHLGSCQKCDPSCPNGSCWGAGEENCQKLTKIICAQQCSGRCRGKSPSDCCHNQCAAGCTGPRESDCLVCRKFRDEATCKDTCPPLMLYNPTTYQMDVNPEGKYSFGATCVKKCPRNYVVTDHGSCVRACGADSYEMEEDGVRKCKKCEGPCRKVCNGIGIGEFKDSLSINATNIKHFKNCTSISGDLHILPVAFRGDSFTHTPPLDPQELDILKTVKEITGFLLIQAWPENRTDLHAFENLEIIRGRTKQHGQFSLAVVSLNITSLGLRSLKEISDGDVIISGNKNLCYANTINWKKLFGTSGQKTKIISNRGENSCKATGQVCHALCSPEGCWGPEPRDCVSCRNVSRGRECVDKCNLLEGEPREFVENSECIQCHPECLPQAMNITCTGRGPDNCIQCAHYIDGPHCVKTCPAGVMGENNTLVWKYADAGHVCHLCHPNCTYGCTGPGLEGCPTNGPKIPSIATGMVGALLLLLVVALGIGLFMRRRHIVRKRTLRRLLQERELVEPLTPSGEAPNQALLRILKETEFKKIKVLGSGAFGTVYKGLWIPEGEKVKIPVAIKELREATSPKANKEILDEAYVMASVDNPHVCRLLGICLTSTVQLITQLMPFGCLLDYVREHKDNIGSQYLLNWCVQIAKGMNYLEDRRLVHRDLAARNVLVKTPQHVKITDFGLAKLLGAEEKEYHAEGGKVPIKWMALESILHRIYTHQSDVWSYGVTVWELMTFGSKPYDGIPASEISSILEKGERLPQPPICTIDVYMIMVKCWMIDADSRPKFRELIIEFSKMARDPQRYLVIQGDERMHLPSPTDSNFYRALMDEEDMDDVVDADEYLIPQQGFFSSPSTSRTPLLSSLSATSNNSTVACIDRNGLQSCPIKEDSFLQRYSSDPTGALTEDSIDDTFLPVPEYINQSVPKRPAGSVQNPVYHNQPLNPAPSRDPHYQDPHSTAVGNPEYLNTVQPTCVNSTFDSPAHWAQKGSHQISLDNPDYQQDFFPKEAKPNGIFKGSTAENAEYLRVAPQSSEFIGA

| IC50 (human EGF-R) [nM] | melting point | Structure (SMILES) |
| --- | --- | --- |
| 21 | 218 °C | COC(=O)CN1CCC(Nc2ncc3ncnc(Nc4cc(Cl)c(N)c(Cl)c4)c3n2)CC1 [2(26), 4-[(4-amino-3,5-dichlorophenyl)amino]-6-({1-[(methoxycarbonyl)methyl]piperidin-4-yl}amino)pyrimido[5,4-d]pyrimidine] |
| 77 | 167 °C | COC(=O)CN1CCC(Nc2ncc3ncnc(Nc4cc(Br)c(N)c(Br)c4)c3n2)CC1 [2(27), 4-[(4-amino-3,5-dibromophenyl)amino]-6-({1-[(methoxycarbonyl)methyl]piperidin-4-yl}amino)pyrimido[5,4-d]pyrimidine] |
| 26 | 167 °C | COC(=O)CN1CCC(Nc2ncc3ncnc(Nc4ccc5[nH]ccc5c4)c3n2)CC1 [2(28), 4-[(indol-5-yl)amino]-6-({1-[(methoxycarbonyl)methyl]piperidin-4-yl}amino)pyrimido [5,4-d]pyrimidine] |
| 103 | 162 to 164 °C | COC(=O)CN(CC(=O)OC)C1CCC(N(C)c2ncc3ncnc(Nc4ccc(F)c(Cl)c4)c3n2)CC1 (stereo not drawn) [3(12), 4-[(3-chloro-4-fluorophenyl)amino]-6-[N-(trans-4-{N,N′-bis[(methoxycarbonyl)methyl]amino}cyclohex-1-yl)-N-methylamino]pyrimido[5,4-d]pyrimidine] |
| 2300 | 240 °C (dec.) | O=C(O)CN1CCN(c2ncc3ncnc(Nc4ccc(F)c(Cl)c4)c3n2)CC1 [Example 1(6), 4-[(3-chloro-4-fluorophenyl)amino]-6-[4-(carboxymethyl)piperazin-1-yl]pyrimido[5,4-d]pyrimidine] |
| 840 | 202 to 205 °C | O=C(O)CN1CCC(Nc2ncc3ncnc(Nc4ccc(F)c(Cl)c4)c3n2)CC1 [Example 1, 4-[(3-chloro-4-fluorophenyl)amino]-6-{ [1-(carboxymethyl)piperidin-4-yl]amino}pyrimido[5.4-d]pyrimidine] |
| 122 | 202 to 204 °C | O=C1CN(C2CCC(Nc3ncc4ncnc(Nc5ccc(F)c(Cl)c5)c4n3)CC2)CCO1 (stereo not drawn) [Example 7, 4-[(3-chloro-4-fluorophenyl)amino]-6-{[trans-4-(2-oxomorpholin-4-yl)cvclohex-1-yl]amino}pyrimido[5,4-d]pyrimidine] |
